In patent US11999794B2, “Human mesothelin chimeric antigen receptors and uses thereof” (Novartis AG, priority 2013, dated 2024):
Marks after values point to notes of the source that are not given here.

Legend:
[1] = RAD001 levels in blood (trough)
P70 S6K = assay: Percent inhibition of P70 S6K activity in HeLa cells in vitro; conditions: concentrations from 30 pM to 4 nM
[2] = system: A/H3N2 strain A/Victoria/361/11; assay: HI titers and seroconversion, heterologous strain; type: in vivo, human; conditions: for Percentage of subjects who seroconvert to heterologous strain A/H3N2 A/Victoria/361/11: 4 weeks after seasonal influenza vaccination, odds ratio vs placebo p < 0.05
B/Brisbane/60/2008 = assay: Hemagglutination inhibition titers and seroconversion; type: in vivo, human; conditions: for Percent of subjects with seroconversion to influenza 4 weeks after vaccination: B; for GMT ratio, B: GMT at week 4 post vaccination/GMT at baseline
Method: (§1) The trial was observer-blind because the placebo in the RAD001 0.5 mg daily and 20 mg weekly cohorts differed slightly from the RAD001 tablets in those cohorts. […] The treatment duration for all cohorts was 6 weeks during which time subjects underwent safety evaluations in the clinic every 2 weeks. After subjects had been dosed for 4 weeks, RAD001 steady state levels were measured pre-dose and at one hour post dose. After completing the 6 week course of study drug, subjects were given a 2 week drug free break to reverse any possible RAD001-induced immunosuppression, and then were given a 2012 seasonal influenza vaccination (Agrippal®, Novartis Vaccines and Diagnostics, Siena, Italy) containing the strains H1N1 A/California/07/2009, H3N2 A/Victoria/210/2009, B/Brisbane/60/2008. Four weeks after influenza vaccination, subjects had serum collected for influenza titer measurements. Antibody titers to the 3 influenza vaccine strains as well as to 2 heterologous strains (A/H1N1 strain A/New Jersey/8/76 and A/H3N2 strain A/Victoria/361/11) were measured by standard hemagglutination inhibition assay (Kendal, A P et al. (1982) Concepts and procedures for laboratory-based influenza surveillance. Atlanta: Centers for Disease Control and Prevention B17-B35). Levels of IgG and IgM specific for the A/H1N1/California/07/2009 were measured in serum samples taken before and 4 weeks after influenza vaccination as described previously (Spensieri, F. et al. (2013) Proc. Natl. Acad. Sci. USA 110:14330-14335). Results were expressed as fluorescence intensity.
(§2) The ability of RAD001 to improve immune function in elderly volunteers was evaluated by measuring the serologic response to the 2012 seasonal influenza vaccine. The hemagglutination inhibition (HI) geometric mean titers (GMT) to each of the 3 influenza vaccine strains at baseline and 4 weeks after influenza vaccination are provided in Table 10. The primary analysis variable was the HI GMT ratio (4 weeks post vaccination/baseline). […] This endpoint was chosen because a 1.2-fold increase in the influenza GMT ratio induced by the MF-59 vaccine adjuvant was associated with a decrease in influenza illness (Iob, A et al. (2005) Epidemiol Infect 133:687-693).
(§3) Rates of seroconversion 4 weeks after influenza vaccination were also evaluated. Seroconversion was defined as the change from a negative pre-vaccination titer (i.e., HI titer <1:10) to post-vaccination HI titer ≥1:40 or at least 4-fold increase from a non-negative (≥1:10) pre-vaccination HI titer.

[3] = system: H1N1 A/California/07/2009; assay: as above; type: in vivo, human; conditions: for Percent of subjects with seroconversion to influenza 4 weeks after vaccination: H1N1; for GMT ratio, A/H1N1: GMT at week 4 post vaccination/GMT at baseline
Method: as §1, §2, §3

H3N2 A/Victoria/210/2009 = assay: as above; type: in vivo, human; conditions: for Percent of subjects with seroconversion to influenza 4 weeks after vaccination: H3N2; for GMT ratio, A/H3N2: GMT at week 4 post vaccination/GMT at baseline
Method: as §1, §2, §3

[4] = Intention to Treat Population, 0.5 mg, N = 48
[5] = Intention to Treat Population, 5 mg, N = 49
[6] = Intention to Treat Population, 20 mg, N = 48
[7] = Subjects with Baseline Titers <=40, 0.5 mg
[8] = Subjects with Baseline Titers <=40, 5 mg
[9] = Subjects with Baseline Titers <=40, 20 mg

## CO[C@H]1C[C@@H]2CC[C@@H](C)[C@@](O)(O2)C(=O)C(=O)N2CCCC[C@H]2C(=O)O[C@H]([C@H](C)C[C@@H]2CC[C@@H](OCCO)[C@H](OC)C2)CC(=O)[C@H](C)/C=C(\C)[C@@H](O)[C@@H](OC)C(=O)[C@H](C)C[C@H](C)/C=C/C=C/C=C/1C [RAD001, (1R,9S,12S,15R,16E,18R,19R,21R,23 S,24E,26E,28E,30S,32S,35R)-1,18-dihydroxy-12-{(1R)-2-[(1 S,3R,4R)-4-(2-hydroxyethoxy)-3-methoxycyclohexyl]-1-methylethyl}-19,30-dimethoxy-15,17,21,23,29,35-hexamethyl-11,36-dioxa-4-aza-tricyclo[30.3.1.04,9]hexatriaconta-16,24,26,28-tetraene-2,3,10,14,20-pentaone]
[1]; 0.5 mg daily
  average trough level: 0.9 ng/mL
[1]; 5 mg weekly
  average trough level: below detection limits
[1]; 20 mg weekly
  average trough level: 0.7 ng/mL
[1]; in vivo
  trough level of study regimens relative to approved regimens: 3-20 fold lower
P70 S6K
  effect on P70 S6K activity in cell lines: partially inhibited P70 S6K activity
[2]; 5 and 20 mg weekly dosing cohorts
  increase in seroconversion rate, H3N2 heterologous strain: statistically significant
[2]; RAD001 5 mg weekly
  Percentage of subjects who seroconvert to heterologous strain A/H3N2 A/Victoria/361/11: 39%*
[2]; RAD001 20 mg weekly
  Percentage of subjects who seroconvert to heterologous strain A/H3N2 A/Victoria/361/11: 40% *
[2]; pooled RAD001 cohorts, p=0.007 vs placebo
  H3N2 seroconversion rate, heterologous strain: 39%
B/Brisbane/60/2008; [4]
  Percent of subjects with seroconversion to influenza 4 weeks after vaccination: 27%
B/Brisbane/60/2008; [5]
  Percent of subjects with seroconversion to influenza 4 weeks after vaccination: 22%
B/Brisbane/60/2008; [6]
  Percent of subjects with seroconversion to influenza 4 weeks after vaccination: 19%
B/Brisbane/60/2008; [7]
  Percent of subjects with seroconversion to influenza 4 weeks after vaccination: 40* %
B/Brisbane/60/2008; [8]
  Percent of subjects with seroconversion to influenza 4 weeks after vaccination: 33%
B/Brisbane/60/2008; [9]
  Percent of subjects with seroconversion to influenza 4 weeks after vaccination: 28%
B/Brisbane/60/2008; RAD001 5 mg weekly, N = 49
  GMT ratio, B: 2.2
B/Brisbane/60/2008; RAD001 20 mg weekly, N = 49
  GMT ratio, B: 2.1
[3]; [4]
  Percent of subjects with seroconversion to influenza 4 weeks after vaccination: 27%
[3]; [5]
  Percent of subjects with seroconversion to influenza 4 weeks after vaccination: 27%
[3]; [6]
  Percent of subjects with seroconversion to influenza 4 weeks after vaccination: 17%
[3]; [7]
  Percent of subjects with seroconversion to influenza 4 weeks after vaccination: 42%
[3]; [8]
  Percent of subjects with seroconversion to influenza 4 weeks after vaccination: 45%
[3]; [9]
  Percent of subjects with seroconversion to influenza 4 weeks after vaccination: 36%
[3]; RAD001 5 mg weekly, N = 49
  GMT ratio, A/H1N1: 2.5
[3]; RAD001 20 mg weekly, N = 49
  GMT ratio, A/H1N1: 1.8
H3N2 A/Victoria/210/2009; [4]
  Percent of subjects with seroconversion to influenza 4 weeks after vaccination: 27%
H3N2 A/Victoria/210/2009; [5]
  Percent of subjects with seroconversion to influenza 4 weeks after vaccination: 24%
H3N2 A/Victoria/210/2009; [6]
  Percent of subjects with seroconversion to influenza 4 weeks after vaccination: 25%
H3N2 A/Victoria/210/2009; [7]
  Percent of subjects with seroconversion to influenza 4 weeks after vaccination: 64%
H3N2 A/Victoria/210/2009; [8]
  Percent of subjects with seroconversion to influenza 4 weeks after vaccination: 53%
H3N2 A/Victoria/210/2009; [9]
  Percent of subjects with seroconversion to influenza 4 weeks after vaccination: 71%
H3N2 A/Victoria/210/2009; RAD001 5 mg weekly, N = 49
  GMT ratio, A/H3N2: 2.0
H3N2 A/Victoria/210/2009; RAD001 20 mg weekly, N = 49
  GMT ratio, A/H3N2: 2.1
